From ChEMBL document CHEMBL1201862, “PubChem BioAssay data set” (2004)
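Dose response: 5 concentrations. Exposure: 48 h. Format: 96-well plates. Endpoint: linear interpolation; highest concentration if not reached. GI50 = concentration required for 50% inhibition of growth.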 Active and inactive are the calls of the source. Cut-off read from the data, not from the text of the source: active = GI50 up to about 1.1 µM and inactive = higher.

Columns and labels:
Experiment in all cases: growth of human tumour cells (NCI), 48 h
[1] = system: 786-0
[2] = system: A498
[3] = system: DU-145
[4] = system: HCT-116
[5] = system: HOP-62
[6] = system: HOP-92
[7] = system: Hs-578T
[8] = system: NCI-H226
[9] = system: NCI/ADR-RES
[10] = system: OVCAR-5
[11] = system: PC-3
[12] = system: RPMI-8226
[13] = system: RXF 393
[14] = system: SK-MEL-28
[15] = system: SK-MEL-2
[16] = system: SK-MEL-5
[17] = system: SR
[18] = system: HCC 2998

Measured: GI50

O=C1Nc2ccccc2/C1=N\c1cccc2ncccc12
inactive: [1] > 100 µM | [2] > 100 µM | [3] > 100 µM | [4] 58.7 µM | [5] 46.5 µM | [6] 42.5 µM | [7] 39.1 µM | [8] > 100 µM | [9] > 100 µM | [10] 63 µM | [11] > 100 µM | [12] 36.5 µM | [13] > 100 µM | [14] > 100 µM | [15] > 100 µM | [16] 67 µM | [17] 31.6 µM

OCCCSCCO
inactive: [1] > 100 µM | [2] > 100 µM | [3] > 100 µM | [18] > 100 µM | [4] > 100 µM | [5] > 100 µM | [6] > 100 µM | [7] > 100 µM | [8] > 100 µM | [9] > 100 µM | [10] > 100 µM | [11] > 100 µM | [12] > 100 µM | [14] > 100 µM | [15] > 100 µM | [16] > 100 µM | [17] > 100 µM

C=C1C[C@@H]2O[C@H]3[C@H]4[C@@H](C[C@@H](C)[C@@H](OC(C)=O)[C@H]42)[C@@H](C)CO[C@@]3(C)[C@H](OC(C)=O)C[C@H]1O
inactive: [1] > 100 µM | [2] > 100 µM | [3] > 100 µM | [18] > 100 µM | [4] > 100 µM | [6] 66.8 µM | [7] > 100 µM | [8] > 100 µM | [9] > 100 µM | [10] > 100 µM | [11] 95.9 µM | [13] 38.7 µM | [14] > 100 µM | [15] > 100 µM | [16] > 100 µM | [17] 43 µM

c1csc(-c2csc(-c3cccs3)c2)c1
inactive: [1] 52.1 µM | [2] > 100 µM | [3] > 100 µM | [18] 48.5 µM | [4] 21.9 µM | [5] 63.1 µM | [6] 17.7 µM | [7] 51.3 µM | [9] > 100 µM | [10] > 100 µM | [11] 29.7 µM | [12] 24.3 µM | [13] 6.1 µM | [14] > 100 µM | [15] 20.2 µM | [16] 18.7 µM | [17] 23.5 µM

CN(/N=C/C=N/N(C)C1=NCCN1)C1=NCCN1
inactive: [1] > 100 µM | [3] > 100 µM | [18] > 100 µM | [4] > 100 µM | [5] > 100 µM | [6] > 100 µM | [7] > 100 µM | [8] > 100 µM | [9] > 100 µM | [10] > 100 µM | [11] > 100 µM | [14] > 100 µM | [16] > 100 µM | [17] > 100 µM

CNC1=Nc2ccccc2C(=O)N2CSCC12 (stereo unspecified)
inactive: [1] > 100 µM | [2] > 100 µM | [3] > 100 µM | [18] > 100 µM | [4] > 100 µM | [5] > 100 µM | [7] > 100 µM | [8] > 100 µM | [9] > 100 µM | [10] > 100 µM | [11] > 100 µM | [12] > 100 µM | [13] > 100 µM | [14] > 100 µM | [15] > 100 µM | [16] > 100 µM | [17] > 100 µM

C/C=C/C(C#N)(Cc1ccccc1)OP1(=O)OC(c2ccccc2)C(C)N1C (stereo unspecified)
inactive: [1] > 100 µM | [2] 69.3 µM | [3] > 100 µM | [18] 81.3 µM | [4] > 100 µM | [5] > 100 µM | [6] 73.3 µM | [7] 89.5 µM | [9] 72.4 µM | [10] > 100 µM | [11] 58.6 µM | [12] 33 µM | [13] > 100 µM | [14] > 100 µM | [15] > 100 µM | [16] 48.9 µM | [17] 36 µM

CC1CC(C)C(C#N)N(C)c2ccccc21 (stereo unspecified)
inactive: [1] > 100 µM | [2] > 100 µM | [3] > 100 µM | [18] > 100 µM | [4] 36.5 µM | [5] > 100 µM | [7] > 100 µM | [8] > 100 µM | [9] > 100 µM | [10] > 100 µM | [11] > 100 µM | [12] 37.2 µM | [13] 6.12 µM | [14] > 100 µM | [15] > 100 µM | [16] 37.7 µM | [17] 25.6 µM

C=C1C(=O)OC2CCN3CC=C(COC(=O)C(C)(O)C4(CO4)C1C)C23 (stereo unspecified)
inactive: [1] > 100 µM | [2] > 100 µM | [3] > 100 µM | [18] > 100 µM | [4] > 100 µM | [6] > 100 µM | [7] > 100 µM | [8] > 100 µM | [9] > 100 µM | [11] > 100 µM | [13] > 100 µM | [14] > 100 µM | [15] > 100 µM | [16] > 100 µM | [17] > 100 µM

COc1ccc(N2C(=O)C3c4[nH]c5ccc(C)cc5c4C4CCC(C(C)C)CC4C3C2=O)cc1 (stereo unspecified)
inactive: [1] > 100 µM | [2] > 100 µM | [3] > 100 µM | [18] > 100 µM | [4] > 100 µM | [5] 45.4 µM | [6] > 100 µM | [7] 57.8 µM | [8] > 100 µM | [9] > 100 µM | [10] > 100 µM | [11] > 100 µM | [12] > 100 µM | [14] > 100 µM | [15] > 100 µM | [16] > 100 µM | [17] > 100 µM

O=C(NCCC1CNc2ccccc21)OCc1ccccc1 (stereo unspecified)
inactive: [1] > 100 µM | [2] > 100 µM | [3] > 100 µM | [18] > 100 µM | [4] > 100 µM | [5] > 100 µM | [6] > 100 µM | [7] > 100 µM | [9] > 100 µM | [10] > 100 µM | [11] > 100 µM | [12] > 100 µM | [13] > 100 µM | [14] > 100 µM | [15] > 100 µM | [16] > 100 µM | [17] > 100 µM

O=[N+]([O-])c1ccc2c3c1[C@H]1O[C@H]1c1cccc(c1-3)[C@@H]1O[C@H]21
inactive: [1] 1.96 µM | [2] 2.31 µM | [3] 2.33 µM | [4] 1.81 µM | [5] 2.9 µM | [6] 2.18 µM | [7] 3.15 µM | [8] 45.9 µM | [9] 2.41 µM | [10] 2.37 µM | [11] 2.3 µM | [12] 1.23 µM | [13] 1.78 µM | [14] 2.28 µM | [15] 2.52 µM | [16] 3.02 µM | [17] 2.72 µM

Clc1cc(-c2csc(Cl)c2)cs1
inactive: [1] > 100 µM | [2] > 100 µM | [3] > 100 µM | [4] > 100 µM | [6] > 100 µM | [7] > 100 µM | [8] > 100 µM | [9] > 100 µM | [10] > 100 µM | [11] > 100 µM | [12] > 100 µM | [13] > 100 µM | [14] > 100 µM | [15] > 100 µM | [16] > 100 µM | [17] > 100 µM

O=c1c2ccccc2nc(Nc2cccc(Cl)c2)n1/N=C/C=C/c1ccccc1
inactive: [1] 48.5 µM | [3] > 100 µM | [18] 94 µM | [4] 60.4 µM | [5] 85.5 µM | [6] 91.2 µM | [7] 62.8 µM | [8] 99.5 µM | [9] 63.5 µM | [10] > 100 µM | [11] 33.7 µM | [12] > 100 µM | [13] > 100 µM | [14] > 100 µM | [15] > 100 µM | [16] 89.3 µM | [17] 29.6 µM

COc1ccccc1C(=O)NO
inactive: [1] > 100 µM | [3] > 100 µM | [18] > 100 µM | [4] > 100 µM | [5] > 100 µM | [7] > 100 µM | [8] > 100 µM | [9] > 100 µM | [10] > 100 µM | [11] > 100 µM | [12] > 100 µM | [13] > 100 µM | [14] > 100 µM | [15] > 100 µM | [16] > 100 µM | [17] > 100 µM

O=C(O)c1c(-c2ccccc2)c(=O)[nH]c2ccccc12
inactive: [1] > 100 µM | [2] > 100 µM | [3] > 100 µM | [18] > 100 µM | [4] > 100 µM | [5] > 100 µM | [7] > 100 µM | [8] > 100 µM | [9] > 100 µM | [10] > 100 µM | [11] > 100 µM | [12] > 100 µM | [13] > 100 µM | [14] > 100 µM | [15] > 100 µM | [16] > 100 µM | [17] > 100 µM

O=C(O)[C@H]1[C@@H](C2CCCCC2)O[C@@H](C2CCCCC2)O[C@H]1C(F)(F)F
inactive: [1] 17.8 µM | [2] 19 µM | [3] 41.8 µM | [18] 20 µM | [4] 28.8 µM | [5] 24 µM | [6] 18.8 µM | [7] 23.1 µM | [8] 21.1 µM | [9] 40.6 µM | [10] 20.2 µM | [11] 17.6 µM | [12] 23.9 µM | [13] 22.9 µM | [14] 19.4 µM | [16] 20.7 µM | [17] 20.7 µM
